Results taken from the NIST ThermoML archive (doi:10.1021/acs.jced.9b00313).

Assays:
[1] = xn = mol fraction of the nth substance listed; details: 86.5 kPa, Liquid; for viscosity: Capillary tube (Ostwald / Ubbelohde) method; for speed of sound: Frequency=3 MHz, Single path-length method; for mass density: Vibrating tube method
[2] = refractive index (Na D-line) (dimensionless); xn = mol fraction of the nth substance listed; details: 86.5 kPa, Liquid, Standard Abbe refractometry

C[N+](C)(C)CCO.[Cl-] [choline chloride] + NCCO
Details | mass density, [1] [kg/m3] | refractive index, [2] | speed of sound, [1] [m/s] | viscosity, [1] [mPa·s]
288.15 K, x1 = 0.125 | 1090.06 | 1.4905 | 1989.5 | 50.12
288.15 K, x1 = 0.167 | 1091.28 | 1.4934 | 2006.1 | 59.66
293.15 K, x1 = 0.125 | 1086.89 | 1.4884 | 1977.8 | 42.39
293.15 K, x1 = 0.167 | 1088.11 | 1.4913 | 1994.5 | 52.01
298.15 K, x1 = 0.125 | 1083.96 | 1.4862 | 1965.3 | 35.76
298.15 K, x1 = 0.167 | 1085.18 | 1.4891 | 1982 | 37.69
303.15 K, x1 = 0.125 | 1081 | 1.4844 | 1953 | 30.23
303.15 K, x1 = 0.167 | 1082.22 | 1.4873 | 1970.7 | 38.98

C[N+](C)(C)CCO.[Cl-] [choline chloride] + OCCO
Details | mass density, [1] [kg/m3] | refractive index, [2] | speed of sound, [1] [m/s] | viscosity, [1] [mPa·s]
288.15 K, x1 = 0.125 | 1113.73 | 1.467 | 1919.5 | 32.07
288.15 K, x1 = 0.167 | 1115.91 | 1.4732 | 1931.8 | 43.39
293.15 K, x1 = 0.125 | 1111.87 | 1.4649 | 1907.5 | 24.34
293.15 K, x1 = 0.167 | 1113.09 | 1.4711 | 1920.1 | 35.75
298.15 K, x1 = 0.125 | 1109.07 | 1.4628 | 1895.2 | 17.71
298.15 K, x1 = 0.167 | 1110.23 | 1.4687 | 1908.6 | 28.86
303.15 K, x1 = 0.125 | 1106.16 | 1.461 | 1883.5 | 12.19
303.15 K, x1 = 0.167 | 1107.34 | 1.4668 | 1897.1 | 22.72

C[N+](C)(C)CCO.[Cl-] [choline chloride] + OCCOCCO
Details | mass density, [1] [kg/m3] | refractive index, [2] | speed of sound, [1] [m/s] | viscosity, [1] [mPa·s]
288.15 K, x1 = 0.125 | 1115.24 | 1.4797 | 1752.1 | 110.12
288.15 K, x1 = 0.167 | 1117.43 | 1.4857 | 1764.7 | 125.8
293.15 K, x1 = 0.125 | 1113.38 | 1.4776 | 1740.1 | 102.39
293.15 K, x1 = 0.167 | 1114.61 | 1.4836 | 1752.3 | 118.16
298.15 K, x1 = 0.125 | 1110.59 | 1.4754 | 1728.4 | 95.76
298.15 K, x1 = 0.167 | 1111.75 | 1.4814 | 1740.3 | 111.27
303.15 K, x1 = 0.125 | 1107.68 | 1.4735 | 1716.3 | 90.23
303.15 K, x1 = 0.167 | 1108.86 | 1.4795 | 1728.4 | 105.11

OCCNCCO [diethanolamine] + C[N+](C)(C)CCO.[Cl-]
Details | mass density, [1] [kg/m3] | refractive index, [2] | speed of sound, [1] [m/s] | viscosity, [1] [mPa·s]
288.15 K, x2 = 0.125 | 1102.46 | 1.4892 | 1826.4 | 506.3
288.15 K, x2 = 0.167 | 1104.58 | 1.492 | 1839 | 528.22
293.15 K, x2 = 0.125 | 1099.49 | 1.4871 | 1812.5 | 498.57
293.15 K, x2 = 0.167 | 1101.42 | 1.4902 | 1825.7 | 520.58
298.15 K, x2 = 0.125 | 1096.43 | 1.485 | 1798.8 | 491.94
298.15 K, x2 = 0.167 | 1098.48 | 1.4877 | 1811.7 | 513.69
303.15 K, x2 = 0.125 | 1092.86 | 1.4831 | 1784 | 486.41
303.15 K, x2 = 0.167 | 1095.52 | 1.4861 | 1799.1 | 507.54

OCCN(CCO)CCO [triethanolamine] + C[N+](C)(C)CCO.[Cl-]
Details | mass density, [1] [kg/m3] | refractive index, [2] | speed of sound, [1] [m/s] | viscosity, [1] [mPa·s]
288.15 K, x2 = 0.125 | 1124.87 | 1.49 | 1715.5 | 522.91
288.15 K, x2 = 0.167 | 1125.76 | 1.4926 | 1734.7 | 552.67
293.15 K, x2 = 0.125 | 1122.22 | 1.4877 | 1703.1 | 515.18
293.15 K, x2 = 0.167 | 1122.89 | 1.4905 | 1723.7 | 545.03
298.15 K, x2 = 0.125 | 1119.73 | 1.4856 | 1691.2 | 508.55
298.15 K, x2 = 0.167 | 1120.12 | 1.4883 | 1712.2 | 538.14
303.15 K, x2 = 0.125 | 1116.88 | 1.4835 | 1678.5 | 503.02
303.15 K, x2 = 0.167 | 1117.58 | 1.4865 | 1700.5 | 531.99

OCCOCCOCCO [triethylene glycol] + C[N+](C)(C)CCO.[Cl-]
Details | mass density, [1] [kg/m3] | refractive index, [2] | speed of sound, [1] [m/s] | viscosity, [1] [mPa·s]
288.15 K, x2 = 0.125 | 1118.76 | 1.492 | 1641.2 | 144.03
288.15 K, x2 = 0.167 | 1120.95 | 1.498 | 1660.5 | 160.22
293.15 K, x2 = 0.125 | 1116.27 | 1.4912 | 1629.7 | 136.3
293.15 K, x2 = 0.167 | 1118.12 | 1.4971 | 1648.4 | 152.58
298.15 K, x2 = 0.125 | 1113.74 | 1.4887 | 1617.8 | 129.67
298.15 K, x2 = 0.167 | 1115.27 | 1.4947 | 1636.8 | 145.69
303.15 K, x2 = 0.125 | 1111.2 | 1.4872 | 1605.8 | 124.14
303.15 K, x2 = 0.167 | 1112.38 | 1.4928 | 1624.9 | 139.54
